In patent US20050202093A1, “Prolonged suppression of electrical activity in excitable tissues” (priority 2002, published 2005):

How the values were obtained:
pilocarpine-treated rats = experiment: Focal pilocarpine-induced seizures after intrahippocampal pretreatment, behavior scored 0-6; format: in vivo, Sprague Dawley rats
Method: The method is similar to that described by Cavalheiro et al. (Cavalheiro E A, Czuzwar S J, Kleinrok S. Intracerebral cholinomimetics produce seizure-related brain damage in rats. Brit. J. Pharmacol. 1983; 79: 284P; incorporated herein by reference). Animals were anesthetized with pentobarbital (40 mg/kg) and an electrode-cannula guide (Plastic one, USA) was stereotactically implanted in the CA3 region of the dorsal hippocampus (lateral from midline 3.5 mm, posterior from bregma 3.8 mm, and 3.8 mm deep from skull; FIG. 35 in (Paxinos G, Watson C. The rat brain in stereotaxic coordinates, 4th edition. San Diego: Academic Press, 1998; incorporated herein by reference)). The electrode-cannula guide was fixed to skull using dental cement and skull screws. After surgery, a dummy cannula was placed into the guide cannula to prevent occlusion. One week later the rats received 30 μl of one anticonvulsant or control treatment (encapsulated or free) through the cannula using a microinfusion pump (Baxter, model AS40A) for 15 min at a rate of 0.12 ml/hr. Thirty minutes after completion of these treatments, 40 mM pilocarpine was infused for 50 min at a rate of 0.12 ml/hr. Subsequently, continuous EEGs were recorded from the electrode-cannulae, and the animals were videotaped for a minimum of two hours. […]

[1] = test system: hippocampus of pilocarpine-treated rats; experiment: Hippocampal histology two weeks after seizure induction (thionin cell loss score, Timm stain score); format: in vivo, Sprague Dawley rats; details: dosage 5 μg
Method: Two weeks after induction of seizure, animals were sacrificed and prepared for routine histology and Timm histochemistry. Following deep anesthesia with sodium pentobarbital (100 mg/kg), rats were perfused transcardially with 300 ml sodium sulfide medium (2.295 g Na2S, 2.975 g NaH2PO4/H2O in 500 ml H2O) followed by 300 ml 4% paraformaldehyd were postfixed in 4% paraformaldehyde for 24 h and then placed in a 30% sucrose solution until they sank to the bottom of the vial. Coronal sections through the entire extent of the hippocampus were cut at 40 μm on a freezing microtome and sections were stored in phosphate buffered saline. Every fourth section was stained for mossy fibers using Timm stain as follows. The sections were developed in the dark for 40-45 min in a solution of 50% Arabic gum (120 ml), 10 ml of citric acid (51 g/100 ml H2O), 10 ml sodium citrate (47 g/100 ml H2O), 3.47 g hydroquinone in 60ml, and 212.25 mg AgNO3. Following washing, the slides were dehydrated in alcohol, cleared in xylene, and mounted on slides with Permount (Fisher Scientific, Pittsburgh, Pa.). Timm staining was analyzed using a scoring system (0 to 5) for terminal sprouting in the CA3 and supragranular regions (Holmes G L, Gaiarsa J L, Chevassus-Au-Louis N, Ben-Ari Y. Consequences of neonatal seizures in the rat: morphological and behavioral effect. Ann. Neurol. 1998; 44: 845-857; Holmes G L, Sarkisian M, Ben-Ari Y, Chevassus-Au-Louis N. Mossy fiber sprouting following recurrent seizures during early development in rats. J. Comp. Neurol. 1999; 404: 537-553; each of which is incorporated herein by reference). […] Slides were analyzed for cell loss in the CA3, CA1 and hilar region using a semi-quantitative visual scoring system (0 to 5) (Mikati M A, Holmes G L, Chronopoulos A, et al. Phenobarbital modifies seizure-related brain injury in the developing brain. Ann. Neurol. 1994; 36: 425-433; incorporated herein by reference). Cell loss was assessed both ipsilateral and contralateral to the injection site. […]

Compound: NCc1cc(=O)[nH]o1 [free muscimol, Muscimol]
- seizure activity as measured by behavior score, versus normal saline (pilocarpine-treated rats; 5 μg intrahippocampal prior to pilocarpine, 120 minute time course, n=4): reduces seizure activity
- mortality (pilocarpine-treated rats; unencapsulated comparison groups to the 10 μg and 20 μg particle groups): high mortality
- Timm scores CA3 region ([1]; n=4, mean ± SD): 1.48 ± 0.63
- Timm scores Supragranular ([1]; n=4, mean ± SD): 1.75 ± 0.28
- Total cell loss ([1]; n=4, thionin staining, mean ± SD): 6.27 ± 0.57
